# Measured values from patent US11547681B2, “N-acylethanolamide derivatives and uses thereof” (ELIEM THERAPEUTICS, INC., priority 2016, dated 2023).
# Experiment: in vitro
# Conditions: for Measured concentration of analyte PEA, 0 min / Measured concentration of analyte PEA, 10 min / Measured concentration of analyte PEA, 20 min / Measured concentration of analyte PEA, 30 min / Measured concentration of analyte PEA, 60 min / % Remaining of Initial, 0 min / % Remaining of Initial, 10 min / % Remaining of Initial, 20 min / % Remaining of Initial, 30 min / % Remaining of Initial, 60 min / Concentration, analyte PEA / % Remaining of Initial (n = 1) / Measured concentration of PEA (analyte) / % Remaining of Initial: 1 μM; for % Remaining of Initial, 0 min / % Remaining of Initial, 10 min / % Remaining of Initial, 20 min / % Remaining of Initial, 30 min / % Remaining of Initial, 60 min / microsomal CLint at 1 μM / half-life at 1 μM / % Remaining of Initial (n = 1) / % Remaining of Initial / microsomal CLint / half-life: microsomes
# Procedure: The reaction mixture, minus cofactors, was prepared as described below. The test article was added into the reaction mixture at a final concentration of 1 μM. […] An aliquot of the reaction mixture (without cofactor) was equilibrated in a shaking water bath at 37° C. for 3 minutes. The reaction was initiated by the addition of cofactor, and the mixture was incubated in a shaking water bath at 37° C. Aliquots (100 μL) were withdrawn at 0, 10, 20, 30, and 60 minutes. All samples were immediately combined with 400 μL of ice-cold 50/50 acetonitrile/H2O containing 0.1% formic acid and internal standard to terminate the reaction. The samples were then mixed and centrifuged to precipitate proteins. Calibration standards were prepared in matched matrix. All samples and standards were assayed by LC-MS/MS using electrospray ionization for both the dosed prodrug I-9 and the expected drug (PEA). Analytical conditions are outlined in Appendix 4-1. The test article concentration at each time point was compared to the test article concentration at time 0 to determine the percent remaining at each time point. Half-lives were calculated using GraphPad software, fitting to a single-phase exponential decay equation.
# Reaction mixture, minus cofactors, was prepared as described below. Test article was added into the reaction mixture at a final concentration of 1 μM. […] An aliquot of the reaction mixture (without cofactor) was equilibrated in a shaking water bath at 37° C. for 3 minutes. The reaction was initiated by the addition of cofactor, and the mixture was incubated in a shaking water bath at 37° C. Aliquots (100 μL) were withdrawn at 0, 10, 20, 30, and 60 minutes. Test article samples were immediately combined with 300 μL of ice-cold acetonitrile containing 1% formic acid. Control samples were immediately combined with 400 μL of ice-cold 50/50 acetonitrile (ACN)/dH2O containing 0.1% formic acid and internal standard to terminate the reaction. Samples were then mixed and centrifuged to precipitate proteins. Calibration standards were prepared in matched matrix. Samples and standards were assayed by LC-MS/MS using electrospray ionization for both dosed prodrug and expected drug (PEA). Analytical conditions are outlined in Appendix 8-1. Test article concentration at each time point was compared to test article concentration at time 0 to determine the percent remaining at each time point. Half-lives were calculated using GraphPad software, fitting to a single-phase exponential decay equation.
# Reaction mixture, minus cofactors, was prepared as described below. Test article was added into the reaction mixture at a final concentration of 1 μM. […] An aliquot of the reaction mixture (without cofactor) was equilibrated in a shaking water bath at 37° C. for 5 minutes. Reaction was initiated by the addition of cofactor, and the mixture was incubated in a shaking water bath at 37° C. Aliquots (100 μL) were withdrawn at 0, 10, 20, 30, and 60 minutes. Test article samples were immediately combined with 300 μL of ice-cold acetonitrile containing 1% formic acid. Control samples were immediately combined with 400 μL of ice-cold 50/50 acetonitrile (ACN)/dH2O containing 0.1% formic acid and internal standard to terminate the reaction. Samples were then mixed and centrifuged to precipitate proteins. Calibration standards were prepared in matched matrix. Samples and standards were assayed by LC-MS/MS using electrospray ionization for both the dosed prodrug and the expected drug (PEA). Analytical conditions are outlined in Appendix 10-1. Test article concentration at each time point was compared to the test article concentration at time 0 to determine the percent remaining at each time point. Half-lives were calculated using GraphPad software, fitting to a single-phase exponential decay equation.
# Reaction mixture, minus cofactors, was prepared as described below. Test article was added into the reaction mixture at a final concentration of 1 μM.
# [1] = male, Sprague-Dawley, rat, 0 min
# [2] = male, Sprague-Dawley, rat, 10 min
# [3] = male, Sprague-Dawley, rat, 20 min
# [4] = male, Sprague-Dawley, rat, 30 min
# [5] = male, Sprague-Dawley, rat, 60 min
# [6] = male, Sprague-Dawley, rat, 0.5 h
# [7] = male, Sprague-Dawley, rat, CLint
smiles,measurement,setting,value
CCCCCCCCCCCCCCCC(=O)NCCOC(=O)CCC(=O)OCC(COC(=O)CCC)OC(=O)CCC (centres unmarked) [Compound I-11],"Measured concentration of analyte PEA, 0 min","both, human, 0 min",0.046 µM
same,"Measured concentration of analyte PEA, 10 min","both, human, 10 min",0.29 µM
same,"Measured concentration of analyte PEA, 20 min","both, human, 20 min",0.20 µM
same,"Measured concentration of analyte PEA, 30 min","both, human, 30 min",0.16 µM
same,"Measured concentration of analyte PEA, 60 min","both, human, 60 min",0.057 µM
same,"% Remaining of Initial, 0 min","both, human, 0 h",100%
same,"% Remaining of Initial, 10 min","both, human, 10 min",3.1%
same,"% Remaining of Initial, 20 min","both, human, 20 min",<1.0%
same,"% Remaining of Initial, 30 min","both, human, 0.5 h",<1.0%
same,"% Remaining of Initial, 60 min","both, human, 1 h",<1.0%
same,microsomal CLint at 1 μM,"both, human, CLint",696 µL/min/mg
same,half-life at 1 μM,"both, human",2 min
same,"Measured concentration of analyte PEA, 0 min",[1],0.023 µM
same,"Measured concentration of analyte PEA, 10 min",[2],0.048 µM
same,"Measured concentration of analyte PEA, 20 min",[3],0.031 µM
same,"Measured concentration of analyte PEA, 30 min",[4],0.0086 µM
same,"Measured concentration of analyte PEA, 60 min",[5],0 µM
same,"% Remaining of Initial, 0 min","male, Sprague-Dawley, rat, 0 h",100%
same,"% Remaining of Initial, 10 min",[2],3.3%
same,"% Remaining of Initial, 20 min",[3],<1.0%
same,"% Remaining of Initial, 30 min",[6],<1.0%
same,"% Remaining of Initial, 60 min","male, Sprague-Dawley, rat, 1 h",<1.0%
same,microsomal CLint at 1 μM,[7],681 µL/min/mg
same,half-life at 1 μM,"male, Sprague-Dawley, rat",2 min
CCCCC/C=C\C/C=C\CCCCCCCC(=O)OCC(COC(=O)CCC(=O)OCCNC(=O)CCCCCCCCCCCCCCC)OC(=O)CCCCCCC/C=C\C/C=C\CCCCC (centres unmarked) [Compound I-13],"Concentration, analyte PEA","both, human, 0 min",0 nM
same,"Concentration, analyte PEA","both, human, 10 min",0 nM
same,"Concentration, analyte PEA","both, human, 20 min",0 nM
same,"Concentration, analyte PEA","both, human, 30 min",0 nM
same,"Concentration, analyte PEA","both, human, 60 min",0 nM
same,% Remaining of Initial (n = 1),"both, human, 0 h",100%
same,% Remaining of Initial (n = 1),"both, human, 10 min",79%
same,% Remaining of Initial (n = 1),"both, human, 20 min",73%
same,% Remaining of Initial (n = 1),"both, human, 0.5 h",60%
same,% Remaining of Initial (n = 1),"both, human, 1 h",42%
same,microsomal CLint at 1 μM,"both, human, CLint",29.6 µL/min/mg
same,half-life at 1 μM,"both, human",47 min
same,"Concentration, analyte PEA",[1],0 nM
same,"Concentration, analyte PEA",[2],0 nM
same,"Concentration, analyte PEA",[3],13 nM
same,"Concentration, analyte PEA",[4],13 nM
same,"Concentration, analyte PEA",[5],0 nM
same,% Remaining of Initial (n = 1),"male, Sprague-Dawley, rat, 0 h",100%
same,% Remaining of Initial (n = 1),[2],91%
same,% Remaining of Initial (n = 1),[3],72%
same,% Remaining of Initial (n = 1),[6],60%
same,% Remaining of Initial (n = 1),"male, Sprague-Dawley, rat, 1 h",38%
same,microsomal CLint at 1 μM,[7],33.6 µL/min/mg
same,half-life at 1 μM,"male, Sprague-Dawley, rat",41 min
CCCCCCCCCCCCCCCC(=O)NCCOC(=O)CCC(=O)OC(COC(=O)CCC)COC(=O)CCC [Compound I-16],Measured concentration of PEA (analyte),"both, human, 0 min",0 µM
same,Measured concentration of PEA (analyte),"both, human, 10 min",0.22 µM
same,Measured concentration of PEA (analyte),"both, human, 20 min",0.15 µM
same,Measured concentration of PEA (analyte),"both, human, 30 min",0.14 µM
same,Measured concentration of PEA (analyte),"both, human, 60 min",0.069 µM
same,% Remaining of Initial,"both, human, 0 h",100%
same,% Remaining of Initial,"both, human, 10 min",8.0%
same,% Remaining of Initial,"both, human, 20 min",3.5%
same,% Remaining of Initial,"both, human, 0.5 h",1.9%
same,% Remaining of Initial,"both, human, 1 h",<1.0%
same,microsomal CLint at 1 μM,"both, human, CLint",> 139 µL/min/mg
same,microsomal CLint at 1 μM,"both, human, CLint, calculated value in parentheses",493 µL/min/mg
same,half-life at 1 μM,"both, human",< 10 min
same,half-life at 1 μM,"both, human, calculated value in parentheses",2.8 min
same,Measured concentration of PEA (analyte),[1],0.025 µM
same,Measured concentration of PEA (analyte),[2],0.033 µM
same,Measured concentration of PEA (analyte),[3],0.015 µM
same,Measured concentration of PEA (analyte),[4],0 µM
same,Measured concentration of PEA (analyte),[5],0 µM
same,% Remaining of Initial,"male, Sprague-Dawley, rat, 0 h",100%
same,% Remaining of Initial,[2],9.7%
same,% Remaining of Initial,[3],4.2%
same,% Remaining of Initial,[6],3.1%
same,% Remaining of Initial,"male, Sprague-Dawley, rat, 1 h",<1.0%
same,microsomal CLint at 1 μM,[7],> 139 µL/min/mg
same,microsomal CLint at 1 μM,"male, Sprague-Dawley, rat, CLint, calculated value in parentheses",452 µL/min/mg
same,half-life at 1 μM,"male, Sprague-Dawley, rat",< 10 min
same,half-life at 1 μM,"male, Sprague-Dawley, rat, calculated value in parentheses",3.1 min
"C[C@]12CC[C@H]3[C@@H](CCC4=CC(=O)CC[C@@]43C)[C@@H]1CC[C@@H]2O [Testosterone, testosterone, reference compound]","Clint, control compound",Example 4 control run,0.0792 ml/min/mg protein
same,"Half-life, control compound",Example 4 control run,17 min
same,microsomal CLint,"both, human, CLint, Control Compound, Human liver microsomes",66.7 µL/min/mg
same,microsomal CLint,"both, human, CLint, Control compound, Human liver microsomes",50.5 µL/min/mg
same,microsomal CLint,"both, human, CLint, Human liver microsomes, control compound",66.7 µL/min/mg
same,microsomal CLint,"both, human, CLint, control compound, human liver microsomes",151 µL/min/mg
same,half-life,"both, human, Control Compound, Human liver microsomes",21 min
same,half-life,"both, human, Control compound, Human liver microsomes",27 min
same,half-life at 1 μM,"both, human, Human liver microsomes",21 min
same,microsomal CLint,"male, Sprague-Dawley, CLint, Control Compound, Rat liver microsomes",1010 µL/min/mg
same,microsomal CLint,"male, Sprague-Dawley, CLint, Control compound, Rat liver microsomes",760 µL/min/mg
same,microsomal CLint,"male, Sprague-Dawley, CLint, Rat liver microsomes, control compound",1010 µL/min/mg
same,microsomal CLint,"male, Sprague-Dawley, CLint, control compound, rat liver microsomes",911 µL/min/mg
same,microsomal CLint,"male, Sprague-Dawley, Clint, control compound, Example 4 control run",1030 µL/min/mg
same,half-life,"male, Sprague-Dawley, Control Compound, Rat liver microsomes",1.4 min
same,half-life,"male, Sprague-Dawley, Control compound, Rat liver microsomes",1.8 min
same,half-life at 1 μM,"male, Sprague-Dawley, Rat liver microsomes",1.4 min
same,half-life,"male, Sprague-Dawley, control compound, Example 4 control run",1.4 min
same,half-life,"male, Sprague-Dawley, control compound, rat liver microsomes",1.5 min
